The values below come from patent US20240034743A9, “TRICYCLIC COMPOUNDS AS EGFR INHIBITORS” (QILU PHARMACEUTICAL CO., LTD., priority 2020, published 2024).

Data set [1] relates to Ba/F3_Del19/T790M/C797S cells. Nature of the data set: Ba/F3_Del19/T790M/C797S cell proliferation inhibition assay (CellTiter-Glo). Type of data set: cell-based. The following applies: Mus musculus. In outline:
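IC50 for growth inhibition came from CellTiter-Glo chemiluminescence after a 72 h, 37° C compound exposure. Ba/F3_Del19/T790M/C797S cells were plated at 700/well, and compound was dosed in gradient with 0.1% final DMSO.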
For orientation: In ATP-based viability assays light output follows the ATP content of the culture.

Data set [2] has as its system Ba/F3_L858R/T790M/C797S cells. The data set can be described thus: Ba/F3_L858R/T790M/C797S cell proliferation inhibition assay (CellTiter-Glo). As to conditions: Mus musculus. Type of data set: cell-based. In outline:
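Proliferation IC50 derived from CellTiter-Glo luminescence in Ba/F3 cells expressing triple-mutant EGFR (L858R/T790M/C797S). Cells (700/well) incubated 72 h with graded compound doses at 0.1% DMSO final, 37 °C, 5% CO2; reagent developed 30 min at room temperature in the dark.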

A further data set deals with EGFR L858R/T790M/C797S (Homo sapiens (Human), UniProt P00533, C797S/L858R/T790M). Nature of the data set: In vitro enzymatic TR-FRET (HTRF KinEASE-TK) kinase assay, EGFR L858R/T790M/C797S. The following applies: kinase activity. Type of data set: biochemical. Here is the method:
(I) In Vitro Enzymatic Experiment for EGFR WT and EGFR L858R/T790M/C797S
In the assay, the inhibition effect of the compound on the kinase activity of EGFR WT (wild type EGFR) and EGFR L858R/T790M/C797S was tested by adopting a time-resolved fluorescence resonance energy transfer (TR-FRET) method, and half maximal inhibitory concentration IC50 of the compound on the kinase activity of EGFR was obtained.
EGFR recombinase and EGFR L858R/T790M/C797S recombinase, purchased from Signalchem.
HTRF KinEASE-TK kit, purchased from Cisbio.
DTT, MnCl2, and MgCl2, purchased from Sigma.
ATP, purchased from Promega.
Brigatinib, purchased from Selleck.
1) 1× working solution was prepared: 5 mM MgCl2; 1 mM DTT; 1 mM MnCl2 and 1× kinase buffer (in kit).
2) […] of gradiently-diluted compound was transferred to a 384-well plate using Echo 550 (Labcyte).
3) 5 μL of 2× EGFR WT or EGFR L858R/T790M/C797S recombinase solution was added to the 384-well plate, and the plate was incubated at room temperature for 10 min.
4) 5 μL of 2× TK-substrate-biotin substrate solution (containing ATP) was added to the 384-well plate, and the plate was incubated at room temperature for 40 min.
5) 5 μL of assay solution containing Sa-XL 665 HTRF and 5 μL of TK-antibody-Cryptatewas were added to the plate, and the plate was incubated at room temperature for 1 h.
6) The fluorescence signal values at 615 nm and 665 nm were measured for each well using an Envision microplate reader (PerkinElmer).
7) The ratio of fluorescence signal values at 665 nm and 615 nm was calculated for each well.
8) Data analysis was performed using GraphPad Prism software to give the IC50 for compounds.
A general note: TR-FRET usually uses a lanthanide donor and a delayed reading to cut background.

A further data set deals with EGFR WT (wild type EGFR) (Homo sapiens (Human), UniProt P00533). Nature of the data set: In vitro enzymatic TR-FRET (HTRF KinEASE-TK) kinase assay, EGFR WT. The following applies: kinase activity, TR-FRET; read-out: EGFR (WT) IC50. Type of data set: biochemical. Summed up: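 IC50 derived from the 665/615 nm TR-FRET ratio after 1 h with streptavidin-XL665 and Cryptate-labelled TK antibody. Kinase reaction ran 40 min at room temperature with biotin-TK substrate and ATP, following 10 min compound–enzyme preincubation. Buffer: 5 mM MgCl2, 1 mM MnCl2, 1 mM DTT.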

The next data set deals with A431 cells (EGFR WT). Nature of the data set: A431 cell proliferation inhibition assay (CellTiter-Glo). Type of data set: cell-based. The following applies: Homo sapiens. In outline:
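CellTiter-Glo luminescence quantified growth after 72 h treatment with serially diluted compounds (final DMSO 0.1%), following a 24 h attachment period at 37° C, 5% CO2. Signal read after 30 min dark incubation at room temperature, with half-maximal growth inhibition reported as IC50.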

Data set [3] relates to PC9 (Del19/T790M/C797S) cells. The data set can be described thus: In vivo efficacy study, PC9 (Del19/T790M/C797S) xenograft. As to conditions: 21 consecutive days; for Tumor volume (mm^3): mean ± SEM; for Tolerability in mice (in words): po. Also on record: species or system BALB/c-nu mice. As to the method:
(III) In Vivo Efficacy Study Experiment
The anti-tumor activity and toxic and side effects of compound 53 and compound 27 administered orally for 21 consecutive days on PC9 (Del19/T790M/C797S) were evaluated.
SPF-grade and female BALB/c-nu mice, purchased from Beijing Vital River Laboratory Animal Technology Co., Ltd.
PC9 (Del19/T790M/C797S) cells, self-constructed by Qilu Pharmaceutical Co., Ltd.
PC9 (Del19/T790M/C797S) cells were cultured in RPMI 1640 medium containing 10% FBS at 37° C. in a 5% carbon dioxide incubator; and the cells in exponential growth phase were collected for inoculation.
Under sterile conditions, a cell suspension of in vitro cultured PC9 (Del19/T790M/C797S) was taken, centrifuged to adjust the cell concentration to 3×10^7 cells/mL, and inoculated in mice at the right side armpit (0.1 mL/mouse), and the day of inoculation was defined as day 0.
3.3 Tumor Grouping, Administration and Measurement
a. When the mean tumor volume was about 150 mm^3, 35 mice with moderate tumor volume were selected for enrollment and randomized into 5 groups according to tumor volume: G1: vehicle control group, G2: compound 53 (15 mg/kg), G3: compound 53 (60 mg/kg), G4: compound 27 (15 mg/kg) and G5: compound 27 (35 mg/kg), 7 mice/group.
b. The animals were grouped and then started to be administrated, and the volume for oral administration (po) was 10 mL/kg; the weighing was performed once daily with consecutively 21-day administration; the tumor diameters were measured 2 times a week.
c. Tumor volume (TV): tumor volumes were measured 2 times a week to observe tumor mass volume changes and growth rate. Tumor volume V=1/2×a×b^2, where a and b represent tumor long diameter and short diameter, respectively. The growth inhibition effect of the compounds on tumor tissues is evaluated by using a tumor growth inhibition TGI (%). TGI (%)=[1−(average tumor volume of a certain administration group—average tumor volume at the day of grouping in the administration group)/(average tumor volume of negative control group—average tumor volume on the day of grouping in the negative control group)]×100%. The data of the administration group and the negative control group were obtained on the same day.
d. The mice's living status, including appearance signs, general behavioral activities, mental status, food consumption, respiratory status, fecal and urinary traits, injection site conditions and other toxic manifestations, was closely observed during the course of the experiment.
e. After the endpoint was reached, the mice were euthanized, and animal carcasses were frozen and stored in a freezer and transferred to qualified medical waste treatment organization for disposal.

The mark [4] stands for this setting: BaF3, cell proliferation, 72 h, CellTiter-Glo, read-out: Ba/F3 (Del19/T790M/C797S) IC50.
The mark [5] stands for this setting: BaF3, cell proliferation, 72 h, CellTiter-Glo, read-out: Ba/F3 (L858R/T790M/C797S) IC50.
The mark [6] stands for this setting: A-431, cell proliferation, 72 h, CellTiter-Glo, read-out: A431 EGFR WT IC50.
Setting [7] is: BaF3, 72 h, read-out: Ba/F3 (Del19/T790M/C797S) IC50(nM).
Setting [8] is: BaF3, 72 h, read-out: Ba/F3 (L858R/T790M/C797S) IC50(nM).
Where [9] appears, read: A-431, 72 h, read-out: A431 EGFR WT IC50(nM).

The structures appear in SMILES notation. Where two headings read alike, the source gives them in different places. Marks after values point to notes of the source that are not given here. A value given as a limit tells only on which side of the number the result lay.

Chain of EGFR L858R/T790M/C797S (P00533 25-1210 T790M/C797S/L858R): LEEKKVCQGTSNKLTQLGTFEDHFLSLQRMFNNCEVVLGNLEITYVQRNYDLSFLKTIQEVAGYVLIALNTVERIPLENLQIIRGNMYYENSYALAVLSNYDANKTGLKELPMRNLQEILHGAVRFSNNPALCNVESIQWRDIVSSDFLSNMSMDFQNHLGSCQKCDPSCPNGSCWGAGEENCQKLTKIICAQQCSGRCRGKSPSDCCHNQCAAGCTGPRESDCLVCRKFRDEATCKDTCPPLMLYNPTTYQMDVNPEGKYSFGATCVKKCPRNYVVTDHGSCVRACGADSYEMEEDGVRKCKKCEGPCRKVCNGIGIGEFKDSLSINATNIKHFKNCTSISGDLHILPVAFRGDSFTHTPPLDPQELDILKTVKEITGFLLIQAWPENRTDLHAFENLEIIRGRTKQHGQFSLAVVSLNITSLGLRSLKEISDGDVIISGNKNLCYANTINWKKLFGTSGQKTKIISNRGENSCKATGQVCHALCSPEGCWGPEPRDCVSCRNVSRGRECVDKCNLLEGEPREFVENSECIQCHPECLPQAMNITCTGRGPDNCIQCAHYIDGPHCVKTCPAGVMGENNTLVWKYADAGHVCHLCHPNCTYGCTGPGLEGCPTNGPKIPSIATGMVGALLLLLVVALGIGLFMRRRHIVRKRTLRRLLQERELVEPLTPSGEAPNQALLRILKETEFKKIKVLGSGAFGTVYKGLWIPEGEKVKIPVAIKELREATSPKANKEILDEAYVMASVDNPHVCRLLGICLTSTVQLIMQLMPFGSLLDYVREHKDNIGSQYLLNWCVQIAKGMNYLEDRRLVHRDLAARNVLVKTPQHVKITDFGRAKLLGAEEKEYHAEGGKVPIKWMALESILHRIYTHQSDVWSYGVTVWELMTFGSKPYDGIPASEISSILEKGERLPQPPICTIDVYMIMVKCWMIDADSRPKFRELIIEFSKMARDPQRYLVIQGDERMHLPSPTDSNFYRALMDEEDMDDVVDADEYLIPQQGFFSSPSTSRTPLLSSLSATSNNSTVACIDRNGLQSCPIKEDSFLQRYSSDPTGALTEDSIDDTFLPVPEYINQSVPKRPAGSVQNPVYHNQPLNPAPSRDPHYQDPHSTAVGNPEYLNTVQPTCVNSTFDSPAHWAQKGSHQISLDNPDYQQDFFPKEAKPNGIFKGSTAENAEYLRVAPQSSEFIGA
Chain of EGFR WT (wild type EGFR) (P00533 25-1210): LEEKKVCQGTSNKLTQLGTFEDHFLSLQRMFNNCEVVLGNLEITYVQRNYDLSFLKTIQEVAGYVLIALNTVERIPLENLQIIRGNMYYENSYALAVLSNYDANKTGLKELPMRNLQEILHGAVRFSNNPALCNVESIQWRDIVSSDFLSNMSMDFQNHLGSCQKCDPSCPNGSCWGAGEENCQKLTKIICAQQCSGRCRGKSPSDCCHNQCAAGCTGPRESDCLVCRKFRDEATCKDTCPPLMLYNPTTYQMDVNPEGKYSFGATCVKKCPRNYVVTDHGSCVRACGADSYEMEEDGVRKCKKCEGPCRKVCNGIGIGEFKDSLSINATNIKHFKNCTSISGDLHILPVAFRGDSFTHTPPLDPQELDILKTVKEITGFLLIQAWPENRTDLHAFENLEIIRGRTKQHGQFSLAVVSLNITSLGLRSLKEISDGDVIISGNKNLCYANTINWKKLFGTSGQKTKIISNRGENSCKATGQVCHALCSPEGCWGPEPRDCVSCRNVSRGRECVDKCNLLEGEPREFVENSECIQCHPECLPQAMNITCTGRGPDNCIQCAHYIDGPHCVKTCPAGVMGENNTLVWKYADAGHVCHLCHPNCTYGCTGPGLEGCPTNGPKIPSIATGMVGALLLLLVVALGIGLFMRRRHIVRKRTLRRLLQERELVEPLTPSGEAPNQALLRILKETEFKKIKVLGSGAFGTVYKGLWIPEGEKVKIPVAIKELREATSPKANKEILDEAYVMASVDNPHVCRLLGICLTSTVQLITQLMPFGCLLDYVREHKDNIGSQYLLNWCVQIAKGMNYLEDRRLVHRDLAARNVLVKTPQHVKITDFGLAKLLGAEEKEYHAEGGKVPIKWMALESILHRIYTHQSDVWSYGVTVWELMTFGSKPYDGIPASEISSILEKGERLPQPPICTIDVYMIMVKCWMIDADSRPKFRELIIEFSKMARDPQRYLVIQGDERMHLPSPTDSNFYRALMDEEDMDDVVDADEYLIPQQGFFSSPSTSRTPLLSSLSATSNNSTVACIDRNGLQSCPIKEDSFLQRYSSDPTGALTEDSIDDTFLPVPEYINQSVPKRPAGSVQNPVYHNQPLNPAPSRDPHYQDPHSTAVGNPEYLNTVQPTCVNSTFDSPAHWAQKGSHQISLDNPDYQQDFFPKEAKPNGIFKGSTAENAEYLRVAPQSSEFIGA

As for `COc1cc2c(cc1Nc1ncc(Br)c(Nc3ccccc3P(C)(C)=O)n1)-c1cnn(C)c1CCN2C(C)C` [Compound 27], the IC50 in data set [1] (setting [4]) is less than 10 nM; in data set [2] (setting [5]), less than 10 nM; at EGFR L858R/T790M/C797S, less than 0.001 µM; on EGFR WT (wild type EGFR) it was 0.001 to 0.01 µM; with A431 cells (EGFR WT) (setting [6]) it was 100 to 1000 nM. In addition, the “Body weight change (%)” value in data set [3] (15 mg/kg po) is listed as 7.0%; in data set [3] (35 mg/kg po), −1.7%. The “TGI (%)” value is 50.6% in data set [3] (15 mg/kg po) and 88.1% in data set [3] (35 mg/kg po). Besides, the “Tumor volume (mm^3)” value in data set [3] (15 mg/kg po) is listed as 617.6 ± 110.7 mm^3; in data set [3] (35 mg/kg po, P < 0.01 vs G1), 253.0 ± 58.5** mm^3. In addition, the “Tolerability in mice (in words)” value in data set [3] is listed as “well tolerated”.
Regarding `COc1cc2c(cc1Nc1ncc(Br)c(Nc3ccc4nccnc4c3NS(C)(=O)=O)n1)-c1cnn(C)c1CCN2C(C)C` [Compound 53], the IC50 in data set [1] (setting [4]) is less than 10 nM; in data set [2] (setting [5]), less than 10 nM; against EGFR L858R/T790M/C797S it was less than 0.001 µM; on EGFR WT (wild type EGFR) it was less than 0.001 µM; in the data set on A431 cells (EGFR WT) (setting [6]), 100 to 1000 nM. Besides, the figures for the “Body weight change (%)” value in data set [3] (15 mg/kg po) and in data set [3] (60 mg/kg po) were 0% and 6.8%, respectively. For the same compound, the “TGI (%)” value in data set [3] (15 mg/kg po) came to 55.9%; in data set [3] (60 mg/kg po), 102.0%. In addition, the “Tumor volume (mm^3)” value in data set [3] (15 mg/kg po) is reported as 565.8 ± 82.0 mm^3; in data set [3] (60 mg/kg po, P < 0.01 vs G1), 117.0 ± 16.1** mm^3. Besides, the “Tolerability in mice (in words)” value in data set [3] is given as “well tolerated”.
`COc1cc2c(cc1Nc1ncc(Br)c(Nc3ccc4nccnc4c3NS(C)(=O)=O)n1)-c1cnn(C)c1CCN2CC(F)(F)F` [Compound 125]: the IC50 in data set [1] (setting [4]) was less than 10 nM; in data set [2] (setting [5]), 10 to 50 nM; against EGFR L858R/T790M/C797S, 0.1 to 1 µM; at EGFR WT (wild type EGFR), more than 1 µM; in the data set on A431 cells (EGFR WT) (setting [6]) it was 100 to 1000 nM.
Regarding `COc1cc2c(cc1Nc1ncc(Br)c(Nc3ccc4nccnc4c3NS(C)(=O)=O)n1)-c1cnn(C)c1CCN2C1CCOCC1` [Compound 130], the IC50 was less than 10 nM in data set [1] (setting [4]); less than 10 nM in data set [2] (setting [5]); less than 0.001 µM against EGFR L858R/T790M/C797S; 0.001 to 0.01 µM on EGFR WT (wild type EGFR); 100 to 1000 nM with A431 cells (EGFR WT) (setting [6]).
`CCN(c1c(Nc2nc(Nc3cc4c(cc3OC)N(C(C)C)CCc3c-4cnn3C)ncc2Br)ccc2nccnc12)S(C)(=O)=O` [Compound 134]: the IC50 is less than 10 nM in data set [1] (setting [7]); 10 to 50 nM in data set [2] (setting [8]); 0.001 to 0.01 µM on EGFR L858R/T790M/C797S; 0.01 to 0.05 µM at EGFR WT (wild type EGFR); 100 to 1000 nM with A431 cells (EGFR WT) (setting [9]).
Take `COc1cc2c(cc1Nc1ncc(Br)c(Nc3ccc4nccnc4c3NS(C)(=O)=O)n1)-c1cnn(C)c1CCN2C1CCC1` [Compound 135]: the IC50 in data set [1] (setting [7]) was less than 10 nM; in data set [2] (setting [8]) it was less than 10 nM; against EGFR L858R/T790M/C797S, 0.001 to 0.01 µM; at EGFR WT (wild type EGFR) it was 0.001 to 0.01 µM; in the data set on A431 cells (EGFR WT) (setting [9]), 100 to 1000 nM.
